Patent US20200276217A1 (priority 2017, published 2020)

How the values were obtained:
[1] = test system: IAV-Luc influenza virus (A/Puerto Rico/8/34(PR8)-Luc); assay type: cell-based; conditions: 10 μM, A549 cells, three treatment schemes, detection after 24 h, FIG. 7
[2] = test system: A/WSN33/H1N1 influenza virus; test: Prophylactic treatment of influenza-infected mice, lung index; conditions: 50 mg/kg intragastric, from two days before infection and 5 days after; 40 LD50 via nasal dripping; compared with 50 mg/kg ribavirin; FIG. 4
Description: […] Barb/C mice (6- to 8-week old) were randomly divided into 4 groups (A, B, C, D) with 5 mice in each group. All animals were marked by ear clipping and then treated with a specified preparation. Group A was a blank control group, Group B was a group in which PBS was used to resist virus infection, Group C was a group in which ribavirin was used to resist virus infection, and Group D was a group in which azithromycin was used to resist virus infection. Two days before the drugs being used to resist virus infection, the mice were treated with 50 mg/kg ribavirin and 50 mg/kg azithromycin by intragastric administration, and were infected with the influenza virus via nasal dripping with a dose of 40 LD50 (10^3 PFU/ml) on the third day (50 μl/mouse), and PBS was administered instead in the blank control group. The mice were administered consecutively for 5 days after virus infection, and the administration method was same as above. After 12 hours of fasting and water deprivation, the body weights were weighed, the lungs were incised aseptically and weighed after the mice were sacrificed by eyeball extirpating, and the lung indexes were calculated so as to evaluate the protective effect of azithromycin for mice in influenza virus infection, in which the calculation method of the lung index was a conventional calculation method known in the art.

[3] = target: RNA polymerase of influenza virus (Influenza A virus, UniProt P03428+P03431+P03433); assay type: cell-based
[4] = test system: HA/NA-HIVLuc pseudovirus; assay type: cell-based, influenza virus; conditions: A549 cells, pre-incubated 8 h with concentration gradients, relative to absolute ethyl alcohol, FIG. 5
[5] = test system: influenza A virus A/Puerto Rico/8/34(PR8)-Luc (IAV-Luc); assay type: cell-based

## azithromycin
[1]
  site of antiviral action (host cell versus virus particles): exerted antiviral effect mainly by acting on the virus particles
[2]
  protective effect for mice in influenza virus infection (lung index): better protective effect for mice in influenza virus infection as compared with ribavirin
[3]
  effect on the replication of the RNA polymerase of influenza virus: did not affect the replication of the RNA polymerase of influenza virus
[4]
  inhibition of influenza virus (pseudovirus) infection at various concentrations: inhibited influenza virus infection and the inhibitory effect was concentration-dependent
[5]
  ability to resist influenza virus infection (infection rate relative to absolute ethyl alcohol control): had the ability to resist influenza virus infection
[5]; 10 μM, A549 cells, FIG. 1
  efficacy against influenza virus infection compared among the macrolide antibiotics: had the strongest efficacy
[5]; 10 μM, A549 cells, FIG. 2
  inhibitory effect against influenza virus infection in the screening of small molecule compounds: quite strong inhibitory effect against influenza virus infection
[5]; same concentration (10 μM), A549 cells, FIG. 3
  ability to resist influenza virus infection compared with oseltamivir: stronger than that of oseltamivir

## erythromycin
[5]
  ability to resist influenza virus infection (infection rate relative to absolute ethyl alcohol control): had the ability to resist influenza virus infection

## roxithromycin
[5]
  ability to resist influenza virus infection (infection rate relative to absolute ethyl alcohol control): had the ability to resist influenza virus infection

## midecamycin
[5]
  ability to resist influenza virus infection (infection rate relative to absolute ethyl alcohol control): had the ability to resist influenza virus infection
